Experiments:
[1] = target: Insulin-like growth factor 1 receptor (Homo sapiens) (UniProt P08069); assay: Inhibition of IGF1R (unknown origin) at 1 uM relative to control
[2] = target: Inhibitor of nuclear factor kappa-B kinase subunit beta (Homo sapiens) (UniProt O14920); assay: Inhibition of IKBKB (unknown origin) at 1 uM relative to control
[3] = Toxicity in BALB/c mouse xenografted with mouse BAF3 cells harboring ETV6 fused TRKC G623R mutant assessed as body weight loss at 15 to 30 mg/kg, po administered twice daily for 12 to 14 consecutive days; assay type: organism-based; details: in vivo, dose lower 15 mg/kg, time lower 12 day, dose upper 30 mg/kg, time upper 14 day
[4] = target: Dual specificity protein kinase CLK2 (Homo sapiens) (UniProt P49760); assay: Inhibition of CLK2 (unknown origin) at 1 uM relative to control
[5] = Toxicity in BALB/c nude mouse xenografted with mouse BAF3 cells harboring TMP3 fused TRKA G595R mutant assessed as mortality at 30 mg/kg, po administered twice daily for 12 to […] consecutive days; assay type: organism-based; details: in vivo, time 12-14 day
[6] = Cmax in Beagle dog at 1 mg/kg, iv measured upto 24 hrs by LC-MS/MS analysis; assay type: ADME, organism-based, Canis lupus familiaris; parameters: route intravenous, dose 1 mg/kg, time <=24; details: in vivo
[7] = AUC(0 to infinity) in Beagle dog at 1 mg/kg, iv measured upto 24 hrs by LC-MS/MS analysis; assay type: ADME, organism-based, Canis lupus familiaris; parameters: route intravenous, dose 1 mg/kg, time <=24; details: in vivo
BaF3 [8] = assay type: functional, cell-based; details: Mus musculus, BaF3, 72 h
[9] = target: Calcium/calmodulin-dependent protein kinase type II subunit beta (Homo sapiens) (UniProt Q13554); assay: Inhibition of CAMK2 (unknown origin) at 1 uM relative to control
[10] = Volume of distribution in Beagle dog at 5 mg/kg, ig measured upto 24 hrs by LC-MS/MS analysis; assay type: ADME, organism-based, Canis lupus familiaris; details: in vivo, po
[11] = target: Serine/threonine-protein kinase DCLK2 (Homo sapiens) (UniProt Q8N568); assay: Inhibition of DCK2 (unknown origin) at 1 uM relative to control
Sequence of Serine/threonine-protein kinase DCLK2 (Homo sapiens) (Q8N568 whole entry): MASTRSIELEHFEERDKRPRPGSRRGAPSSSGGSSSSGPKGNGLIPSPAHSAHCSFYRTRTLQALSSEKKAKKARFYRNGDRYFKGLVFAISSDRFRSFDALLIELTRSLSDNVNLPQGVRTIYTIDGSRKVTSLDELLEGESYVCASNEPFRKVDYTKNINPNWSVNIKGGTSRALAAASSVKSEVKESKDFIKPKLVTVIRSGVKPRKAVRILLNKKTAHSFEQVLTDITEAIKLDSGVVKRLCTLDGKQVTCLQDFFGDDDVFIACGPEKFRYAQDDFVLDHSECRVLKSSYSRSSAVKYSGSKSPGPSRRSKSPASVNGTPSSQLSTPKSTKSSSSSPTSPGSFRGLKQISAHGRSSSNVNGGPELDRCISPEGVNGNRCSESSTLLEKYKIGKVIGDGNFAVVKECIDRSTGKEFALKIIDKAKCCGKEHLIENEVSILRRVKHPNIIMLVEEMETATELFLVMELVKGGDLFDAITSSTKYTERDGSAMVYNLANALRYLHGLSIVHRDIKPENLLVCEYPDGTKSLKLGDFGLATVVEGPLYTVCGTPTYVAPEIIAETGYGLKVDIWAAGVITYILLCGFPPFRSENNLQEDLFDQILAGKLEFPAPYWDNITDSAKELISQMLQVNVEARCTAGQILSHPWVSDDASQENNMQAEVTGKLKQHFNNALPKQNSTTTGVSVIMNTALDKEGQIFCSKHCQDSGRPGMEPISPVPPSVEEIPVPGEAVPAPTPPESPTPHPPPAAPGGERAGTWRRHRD

[12] = AUC(0 to infinity) in Sprague-Dawley rat at 5 mg/kg, ig measured upto 24 hrs by LC-MS/MS analysis; assay type: ADME, organism-based; parameters: route […], dose 5 mg/kg, time <=24; details: in vivo, po
[13] = target: Serine/threonine-protein kinase mTOR (Homo sapiens) (UniProt P42345); assay: Inhibition of mTOR (unknown origin) at 1 uM relative to control
[14] = target: RAC-alpha serine/threonine-protein kinase (Homo sapiens) (UniProt P31749); assay: Inhibition of AKT1 (unknown origin) at 1 uM relative to control
hERG (KCNH2) = hERG (KCNH2) (Homo sapiens, UniProt Q12809); assay: Inhibition of hERG at 10 uM relative to control
[15] = target: High affinity nerve growth factor receptor (Homo sapiens, UniProt P04629); assay: Inhibition of TRKA (unknown origin) at 1 uM relative to control
[16] = Cmax in Beagle dog at 5 mg/kg, ig measured upto 24 hrs by LC-MS/MS analysis; assay type: ADME, organism-based, Canis lupus familiaris; parameters: route […], dose 5 mg/kg, time <=24; details: in vivo, po
[17] = target: Proto-oncogene tyrosine-protein kinase ROS (Homo sapiens) (UniProt P08922); assay: Inhibition of ROS1 (unknown origin) at 1 uM relative to control
Sequence of Proto-oncogene tyrosine-protein kinase ROS (Homo sapiens) (P08922 whole entry): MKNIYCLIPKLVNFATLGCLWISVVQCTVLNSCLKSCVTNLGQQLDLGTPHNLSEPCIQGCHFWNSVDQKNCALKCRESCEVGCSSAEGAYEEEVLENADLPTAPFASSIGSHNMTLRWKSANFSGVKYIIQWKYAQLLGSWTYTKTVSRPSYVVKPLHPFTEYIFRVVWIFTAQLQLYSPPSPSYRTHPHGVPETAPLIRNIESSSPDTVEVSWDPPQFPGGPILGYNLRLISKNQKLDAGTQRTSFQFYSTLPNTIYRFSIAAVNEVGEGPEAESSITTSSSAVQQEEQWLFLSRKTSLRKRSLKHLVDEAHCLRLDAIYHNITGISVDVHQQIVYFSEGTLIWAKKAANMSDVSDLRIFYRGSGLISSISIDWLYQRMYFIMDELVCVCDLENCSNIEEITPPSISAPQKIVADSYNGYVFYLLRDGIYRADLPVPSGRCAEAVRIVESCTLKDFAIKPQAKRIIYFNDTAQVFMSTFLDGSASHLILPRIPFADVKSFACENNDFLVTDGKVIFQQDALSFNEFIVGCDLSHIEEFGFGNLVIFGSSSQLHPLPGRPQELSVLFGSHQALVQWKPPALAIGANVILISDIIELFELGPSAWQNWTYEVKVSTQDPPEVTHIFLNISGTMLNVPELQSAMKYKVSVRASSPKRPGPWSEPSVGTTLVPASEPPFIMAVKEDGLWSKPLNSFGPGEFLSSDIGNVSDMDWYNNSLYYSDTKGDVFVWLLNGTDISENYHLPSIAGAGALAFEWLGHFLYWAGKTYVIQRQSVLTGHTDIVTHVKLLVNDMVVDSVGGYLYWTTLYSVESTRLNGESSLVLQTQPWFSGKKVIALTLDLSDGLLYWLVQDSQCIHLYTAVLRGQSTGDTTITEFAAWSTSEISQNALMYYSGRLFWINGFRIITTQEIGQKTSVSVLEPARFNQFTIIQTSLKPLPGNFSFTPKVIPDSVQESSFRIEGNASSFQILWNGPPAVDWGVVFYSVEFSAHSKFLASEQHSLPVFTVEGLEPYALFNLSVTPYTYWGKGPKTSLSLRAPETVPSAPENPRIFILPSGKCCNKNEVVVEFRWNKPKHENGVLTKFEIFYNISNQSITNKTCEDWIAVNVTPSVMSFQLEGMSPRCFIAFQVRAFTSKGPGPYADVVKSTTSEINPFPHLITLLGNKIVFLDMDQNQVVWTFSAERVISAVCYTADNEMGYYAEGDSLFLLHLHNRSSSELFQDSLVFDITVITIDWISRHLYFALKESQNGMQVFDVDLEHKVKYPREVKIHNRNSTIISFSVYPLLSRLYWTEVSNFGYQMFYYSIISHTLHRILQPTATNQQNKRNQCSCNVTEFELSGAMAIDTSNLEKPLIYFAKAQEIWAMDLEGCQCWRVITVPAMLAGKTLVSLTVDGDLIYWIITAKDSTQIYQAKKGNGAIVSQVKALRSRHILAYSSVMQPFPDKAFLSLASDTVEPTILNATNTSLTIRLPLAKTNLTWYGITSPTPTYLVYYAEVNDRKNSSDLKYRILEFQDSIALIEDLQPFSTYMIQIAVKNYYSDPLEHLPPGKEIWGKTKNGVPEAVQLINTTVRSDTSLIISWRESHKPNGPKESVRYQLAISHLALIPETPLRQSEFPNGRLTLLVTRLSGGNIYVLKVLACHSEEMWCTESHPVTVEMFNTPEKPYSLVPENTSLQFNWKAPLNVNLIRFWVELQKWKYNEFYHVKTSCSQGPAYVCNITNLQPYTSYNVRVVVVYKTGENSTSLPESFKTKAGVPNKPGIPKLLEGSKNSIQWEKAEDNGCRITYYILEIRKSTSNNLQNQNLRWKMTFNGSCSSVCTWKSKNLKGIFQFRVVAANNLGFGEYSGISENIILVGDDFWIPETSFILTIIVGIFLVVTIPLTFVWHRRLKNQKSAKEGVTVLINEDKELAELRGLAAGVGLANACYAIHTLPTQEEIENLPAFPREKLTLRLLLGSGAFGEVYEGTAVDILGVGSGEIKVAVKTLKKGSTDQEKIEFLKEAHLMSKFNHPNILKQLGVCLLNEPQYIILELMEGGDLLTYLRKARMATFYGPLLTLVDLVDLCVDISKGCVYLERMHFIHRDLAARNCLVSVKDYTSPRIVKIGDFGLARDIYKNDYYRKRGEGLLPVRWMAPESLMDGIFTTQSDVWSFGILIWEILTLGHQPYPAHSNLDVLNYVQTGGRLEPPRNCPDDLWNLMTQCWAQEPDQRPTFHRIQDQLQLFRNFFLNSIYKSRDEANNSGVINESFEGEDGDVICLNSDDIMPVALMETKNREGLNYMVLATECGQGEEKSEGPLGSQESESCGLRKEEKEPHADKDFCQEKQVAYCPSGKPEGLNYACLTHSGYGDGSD

[18] = Volume of distribution in Beagle dog at 1 mg/kg, iv measured upto 24 hrs by LC-MS/MS analysis; assay type: ADME, organism-based, Canis lupus familiaris; details: in vivo, read-out: Vz
[19] = target: Misshapen-like kinase 1 (Homo sapiens) (UniProt Q8N4C8); assay: Inhibition of MINK1 (unknown origin) at 1 uM relative to control
[20] = Oral bioavailability in Beagle dog at 5 mg/kg measured upto 24 hrs by LC-MS/MS analysis; assay type: ADME, organism-based, Canis lupus familiaris; details: in vivo
[21] = Clearance in Sprague-Dawley rat at 5 mg/kg, ig measured upto 24 hrs by LC-MS/MS analysis; assay type: ADME, organism-based; details: in vivo, po
[22] = target: Mitogen-activated protein kinase 3 (Homo sapiens) (UniProt P27361); assay: Inhibition of ERK1 (unknown origin) at 1 uM relative to control
[23] = Volume of distribution in Sprague-Dawley rat 1 mg/kg, iv measured upto 24 hrs by LC-MS/MS analysis; assay type: ADME, organism-based; details: in vivo, read-out: Vz
[24] = Metabolic stability in human liver microsomes assessed as half life at 1 uM measured upto 90 mins in presence of NADPH regenerating system by LC-MS/MS analysis; assay type: ADME, Microsome
[25] = target: Epidermal growth factor receptor (Homo sapiens) (UniProt P00533); assay: Inhibition of EGFR (unknown origin) at 1 uM relative to control
[26] = target: Proto-oncogene tyrosine-protein kinase Src (Homo sapiens) (UniProt P12931); assay: Inhibition of SRC (unknown origin) at 1 uM relative to control
[27] = target: Mast/stem cell growth factor receptor Kit (Homo sapiens) (UniProt P10721); assay: Inhibition of KIT (unknown origin) at 1 uM relative to control
Sequence of Mast/stem cell growth factor receptor Kit (Homo sapiens) (P10721 whole entry): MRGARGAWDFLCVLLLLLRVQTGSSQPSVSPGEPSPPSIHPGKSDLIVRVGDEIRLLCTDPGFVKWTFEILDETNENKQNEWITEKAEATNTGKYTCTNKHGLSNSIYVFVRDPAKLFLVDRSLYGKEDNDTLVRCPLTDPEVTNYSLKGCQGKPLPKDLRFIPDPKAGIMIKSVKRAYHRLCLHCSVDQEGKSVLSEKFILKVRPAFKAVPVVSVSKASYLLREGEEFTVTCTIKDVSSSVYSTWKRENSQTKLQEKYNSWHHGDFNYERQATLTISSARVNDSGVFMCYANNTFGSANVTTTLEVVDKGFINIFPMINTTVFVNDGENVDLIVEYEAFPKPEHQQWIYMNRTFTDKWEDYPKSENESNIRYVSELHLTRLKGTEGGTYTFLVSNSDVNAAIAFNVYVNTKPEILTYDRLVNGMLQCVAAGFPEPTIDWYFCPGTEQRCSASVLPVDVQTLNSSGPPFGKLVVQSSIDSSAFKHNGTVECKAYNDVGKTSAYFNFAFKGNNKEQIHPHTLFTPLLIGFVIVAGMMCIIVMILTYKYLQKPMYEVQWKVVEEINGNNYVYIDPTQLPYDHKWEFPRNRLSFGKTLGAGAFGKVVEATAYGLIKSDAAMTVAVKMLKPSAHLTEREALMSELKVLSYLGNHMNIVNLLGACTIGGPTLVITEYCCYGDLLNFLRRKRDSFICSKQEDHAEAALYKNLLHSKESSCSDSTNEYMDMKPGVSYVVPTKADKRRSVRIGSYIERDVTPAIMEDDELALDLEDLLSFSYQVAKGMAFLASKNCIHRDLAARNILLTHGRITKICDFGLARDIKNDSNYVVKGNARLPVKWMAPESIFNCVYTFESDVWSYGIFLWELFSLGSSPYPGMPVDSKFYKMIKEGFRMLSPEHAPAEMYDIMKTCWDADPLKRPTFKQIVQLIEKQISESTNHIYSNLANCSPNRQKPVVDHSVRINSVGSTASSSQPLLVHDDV

BaF3 [28] = assay: animal or person; assay type: functional; details: Mus musculus, BaF3, po; dose 100 mg/kg; time 12-14 day; read-out: TGI
[29] = Clearance in Beagle dog at 5 mg/kg, ig measured upto 24 hrs by LC-MS/MS analysis; assay type: ADME, organism-based, Canis lupus familiaris; details: in vivo, po
[30] = target: Serine/threonine-protein kinase pim-1 (Homo sapiens) (UniProt P11309); assay: Inhibition of PIM1 (unknown origin) at 1 uM relative to control
[31] = target: PAS domain-containing serine/threonine-protein kinase (Homo sapiens) (UniProt Q96RG2); assay: Inhibition of PASK (unknown origin) at 1 uM relative to control
BaF3 [32] = assay: Antiproliferative activity against mouse BaF3 cells transfected with ETV6-wild type TRKB assessed as cell viability incubated for 72 hrs by CCK8 assay; assay type: functional, cell-based; details: BaF3, 72 h
[33] = Toxicity in BALB/c mouse xenografted with mouse BAF3 cells harboring TMP3 fused wild type TRKA assessed as body weight loss at 15 mg/kg, po administered twice daily for 12 to 14 consecutive days; assay type: organism-based; details: in vivo, time 12-14 day
[34] = target: Vascular endothelial growth factor receptor 1 (Homo sapiens) (UniProt P17948); assay: Inhibition of FLT1 (unknown origin) at 1 uM relative to control
[35] = target: NT-3 growth factor receptor (Homo sapiens) (UniProt Q16288); assay: Inhibition of TRKC (unknown origin) at 1 uM relative to control
[36] = Toxicity in BALB/c nude mouse xenografted with mouse BAF3 cells harboring TMP3 fused TRKA G595R mutant assessed as body weight loss at 30 mg/kg, po administered twice daily for 12 to 14 consecutive days; assay type: organism-based; details: in vivo, time 12-14 day
[37] = target: SRSF protein kinase 1 (Homo sapiens) (UniProt Q96SB4); assay: Inhibition of SRPK1 (unknown origin) at 1 uM relative to control
BaF3 [38] = assay: Antiproliferative activity against mouse BaF3 cells transfected with ETV6-wild type TRKC assessed as cell viability incubated for 72 hrs by CCK8 assay; assay type: functional, cell-based; details: BaF3, 72 h
[39] = Plasma protein binding in rat; assay type: ADME, cell-free; details: read-out: PPB (converted)
BaF3 [40] = assay type: functional, cell-based; details: Mus musculus, BaF3, 72 h; remark: listed apart in the source
[41] = Clearance in Sprague-Dawley rat at 1 mg/kg, iv measured upto 24 hrs by LC-MS/MS analysis; assay type: ADME, organism-based; details: in vivo

Sequence of Inhibitor of nuclear factor kappa-B kinase subunit beta (Homo sapiens) (O14920 whole entry, the tested form may be a part): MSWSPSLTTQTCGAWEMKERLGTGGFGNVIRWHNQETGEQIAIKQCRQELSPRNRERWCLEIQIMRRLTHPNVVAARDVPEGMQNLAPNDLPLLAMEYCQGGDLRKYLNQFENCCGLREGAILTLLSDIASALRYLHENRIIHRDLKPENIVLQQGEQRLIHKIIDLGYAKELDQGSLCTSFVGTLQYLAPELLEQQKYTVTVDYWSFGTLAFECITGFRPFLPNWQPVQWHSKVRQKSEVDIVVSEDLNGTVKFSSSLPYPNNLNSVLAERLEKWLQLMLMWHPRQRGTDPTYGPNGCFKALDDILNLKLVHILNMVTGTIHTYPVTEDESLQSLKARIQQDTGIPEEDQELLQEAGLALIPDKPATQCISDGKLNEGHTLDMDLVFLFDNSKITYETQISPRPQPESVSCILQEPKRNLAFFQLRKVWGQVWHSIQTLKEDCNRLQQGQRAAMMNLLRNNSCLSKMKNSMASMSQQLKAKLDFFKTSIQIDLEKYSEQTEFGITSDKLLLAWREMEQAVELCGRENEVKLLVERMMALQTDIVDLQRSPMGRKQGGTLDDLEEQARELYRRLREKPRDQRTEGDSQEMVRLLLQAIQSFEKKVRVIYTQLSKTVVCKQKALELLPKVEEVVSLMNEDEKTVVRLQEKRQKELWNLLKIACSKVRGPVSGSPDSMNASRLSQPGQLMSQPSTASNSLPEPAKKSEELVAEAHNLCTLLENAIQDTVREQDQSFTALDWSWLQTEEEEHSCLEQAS

C[C@@H](Nc1ccn2ncc(-c3cnn(CCO)c3)c2n1)c1cc(F)ccc1OCC(F)F
inhibition [1]: < 50% | inhibition [2]: < 50% | Activity [3]: Non-Toxic | inhibition [4]: < 50% | Activity [5]: Non-Toxic | Cmax [6]: 1500 ng/mL | AUC(0-inf) [7]: 2140 ng·h/mL | IC50 (BaF3 [8]): 0.2 nM | inhibition [9]: < 50% | Vz [10]: 4.77 L/kg | inhibition [11]: < 50% | AUC(0-inf) [12]: 540 ng·h/mL | inhibition [13]: < 50% | inhibition [14]: < 50% | inhibition at 10 µM (hERG (KCNH2)): 23% | inhibition [15]: > 80% | Cmax [16]: 1570 ng/mL | inhibition [17]: > 80% | Vd [18]: 4.94 L/kg | inhibition [19]: < 50% | bioavailability [20]: 92% | CL/F [21]: 158 mL/min/kg | inhibition [22]: < 50% | Vd [23]: 40 L/kg | half-life at 1 µM [24]: 5.25 h | inhibition [25]: < 50% | inhibition [26]: < 50% | inhibition [27]: < 50% | inhibition in vivo at 100 mg/kg (BaF3 [28]): 99% | CL/F [29]: 9.17 mL/min/kg | inhibition [30]: < 50% | inhibition [31]: < 50% | IC50 (BaF3 [32]): 0.3 nM | Activity [33]: Non-Toxic | inhibition [34]: < 50% | inhibition [35]: > 80% | Activity [36]: Non-Toxic | inhibition [37]: < 50% | IC50 (BaF3 [38]): 0.2 nM | fraction unbound [39]: 0.121 | IC50 (BaF3 [40]): 10.9 nM | clearance [41]: 83.3 mL/min/kg
